Measurements as given in patent US7741341B2, “Benzimidazole-derivatives as factor Xa inhibitors” (sanofi-aventis Deutschland GmbH, priority 2003, dated 2010).

Target: T1, human factor Xa (Homo sapiens, UniProt P00742)
T1 construct: human factor Xa (Enzyme Research Laboratories, Inc; South Bend, Ind.); purchased Enzyme Research Laboratories, Inc; South Bend, Ind
Test: Factor Xa assay (chromogenic, substrate S-2765)
Type: biochemical
Settings: read-out: Ki(FXa)
In short: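 Purified human factor Xa (0.5 nM final) in TBS-PEG was preincubated 10 min with compound in DMSO-containing buffer. The reaction was started with chromogenic substrate S-2765 at 140 μM. IC50 was taken from the concentration series.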

T1 sequence (P00742 235-488 limits assumed): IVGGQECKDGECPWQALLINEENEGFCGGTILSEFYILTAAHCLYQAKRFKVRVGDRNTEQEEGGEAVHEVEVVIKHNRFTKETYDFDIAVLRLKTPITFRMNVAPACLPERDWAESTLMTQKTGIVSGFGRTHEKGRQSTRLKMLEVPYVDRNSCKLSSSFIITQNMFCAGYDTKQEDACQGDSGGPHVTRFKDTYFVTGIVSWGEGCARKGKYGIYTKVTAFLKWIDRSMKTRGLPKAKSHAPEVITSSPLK
T1 sequence (P00742 41-179 partner limits assumed): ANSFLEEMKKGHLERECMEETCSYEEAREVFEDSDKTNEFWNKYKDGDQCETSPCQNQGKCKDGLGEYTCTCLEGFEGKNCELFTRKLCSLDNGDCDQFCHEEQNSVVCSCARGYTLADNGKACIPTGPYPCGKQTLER

Ki: 3.5 nM
Compound: CCOCCOc1cccc2c1nc(C(=O)NC1CCN(C(C)C)CC1)n2CC(=O)Nc1ccc(Cl)cn1 [Example 109, 1-[(5-Chloro-pyridin-2-ylcarbamoyl)-methyl]-4-(2-ethoxy-ethoxy)-1H-benzoimidazole-2-carboxylic acid (1-isopropyl-piperidin-4-yl)-amide]
